Laboratory results reported in US11649431B2, “Cortical interneurons and other neuronal cells produced by the directed differentiation of pluripotent and multipotent cells” (MEMORIAL SLOAN-KETTERING CANCER CENTER, priority 2013, dated 2023).

B1: DKK1: recombinant DKK1 (Dickkopf protein 1), inhibitor of canonical Wnt signaling (protein, UniProt O94907 32-266, looked up)
Dickkopf-related protein 1: TLNSVLNSNAIKNLPPPLGGAAGHPGSAVSAAPGILYPGGNKYQTIDNYQPYPCAEDEECGTDEYCASPTRGGDAGVQICLACRKRRKRCMRHAMCCPGNYCKNGICVSSDQNHFRGEIEETITESFGNDHSTLDGYSRRTTLSSKMYHTKGQEGSVCLRSSDCASGLCCARHFWSKICKPVLKEGQVCTKHRRKGSHGLEIFQRCYCGEGLSCRIQKDHHQASNSSRLHTCQRH

Assays:
[1] = test system: colon carcinoma cell line DLD-1; conditions: catenin-dependent colon carcinoma cell line; cited from earlier work
SW480 cells = conditions: cited from earlier work
[2] = test system: human ESC (WA-09, HES-3) and iPS cells (C72, SeV6); experiment: FOXG1 / PAX6 induction during neural differentiation of hPSCs (immunofluorescence quantification); format: cell-based; conditions: for PAX6 expression after addition of Wnt antagonist to dual SMAD inhibition protocol: HES-3 (NKX2.1::GFP) line, FIG. 1C; for FOXG1 expression in LSB-treated cultures: Wnt antagonist added to LSB dual SMAD inhibition, XAV939 2 μM, DKK1 250 ng/ml
From the text: Human ESC (lines WA-09, HES-3 (NKX2.1::GFP) and iPS cells (C72, SeV6) were maintained on mouse embryonic fibroblasts (MEFs) as described previously and dissociated with Accutase (Innovative Cell Technologies) for differentiation or dispase for passaging (Chambers et al., Nat Biotechnol 27:275-280 (2009)). Media used for differentiation included KSR-medium, N2 medium (DMEM/F12 with NaHCO3, N2B supplement (Stem Cell Technologies), and Neurobasal media with B27 (Gibco) and N2 supplements (Invitrogen) as described previously. Kriks et al., Nature 480:547-551 (2011). The small molecules compounds used included: XAV939 (2 μM; Stemgent), LDN193189 (100 nM; Stemgent), SB431542 (10 μM; Tocris), and Purmorphamine (1-2 μM; Calbiochem), ascorbic acid (200 μM) and dibutyryl-cyclic AMP (dbcAMP, 200 μM; both from Sigma). Recombinant growth factors: SHH (C25II; 50-500 ng/ml), Noggin (125 ng/ml), DKK1 (250 ng/ml), and BDNF (10 ng/ml) were purchased from R&D Systems or for FGF2 (10 ng/ml) from Promega and used at the concentrations indicated in the manuscript.
Cultures were fixed in 4% paraformaldehyde in phospate-buffered saline and processed for immunofluorescent staining and confocal microscopy. Secondary antibodies used for primary antibody detection were species-specific Alexa-dye conjugates (Invitrogen). For primary antibodies, we used antibodies to rabbit FOXG1 (gift from Eseng Lai); mouse PAX6 (DSHB); mouse NKX2.1 (Labvision); goat NKX2.1 (C-20, Santa Cruz); rabbit OLIG2 (Chemicon); goat FOXA2 (Santa Cruz); rabbit LHX6 (Abeam); mouse RAX (Abnova); rabbit GAPDH (Thermo Scientific); goat DCX (Santa Cruz); mouse TUJ1 (Covance); rabbit GABA (Sigma); mouse Nestin (Thermo Scientific); rabbit KI67 (Labvision); mouse KI67 (Dako); rabbit Calbindin (Chemicon); mouse Calretinin (Swant); chick GFP (Abeam); goat Chat (Chemicon); rat somatostatin (Chemicon); mouse TH (Abeam); rabbit NOS (Swant); mouse Parvalbumin (Chemicon); mouse PSD-95 (Zymed); guinea-pig VGLUT1 (Synaptic systems); rabbit VGAT (Synaptic systems); and mouse Gephyrin (Synaptic Systems).
FOXG1 and PAX6 quantification: Using a 20× objective, 25 fields were imaged from 3 wells and from 4 independent differentiation studies. The number of DAPI+ nuclei was used as the denominator and either FOXG1+ nuclei or PAX6+ nuclei were used for the numerator. NKX2.1::GFP co-labeling: Using a 20× objective, 25-30 fields were imaged from 4 wells from 4 independent differentiations. The number of NKX2.1::GFP+ cells was used as the denominator and the numerator chosen for each analyzed marker. As a control for each marker, secondary antibody in the absence of primary antibody was used as a negative control to designate signal specificity.

motor neurons (MNs) = conditions: trophic factors removed, 72 hr; cited from earlier work

Molecule | proliferation of DLD-1 cells [1] | degradation of β-catenin (SW480 cells) | protein levels of the axin-GSK3β complex (SW480 cells) | effect on FOXG1 induction across independent hESC (HES-3, WA-09) and human iPSC lines (C72, SeV6) ([2]; FIG. 1E) | PAX6 expression after addition of Wnt antagonist to dual SMAD inhibition protocol [2] | FOXG1 expression in LSB-treated cultures [2] | healthy survival of MNs (motor neurons (MNs))
Oc1nc(-c2ccc(C(F)(F)F)cc2)nc2c1CSCC2 [XAV939, 3,5,7,8-Tetrahydro-2-[4-(trifluoromethyl)phenyl]-4H-thiopyrano[4,3-d]pyrimidin-4-one] | inhibits proliferation | promotes the degradation | increases | consistent | did not result in a loss | greatly enhanced | 
O=C1Cc2c([nH]c3ccc(Br)cc23)-c2ccccc2N1 [kenpaullone] |  |  |  |  |  |  | impressive ability to prolong
B1 |  |  |  |  | did not result in a loss | greatly enhanced | 
